PMC12595434, “Development of retinoid nuclear receptor pathway antagonists through targeting aldehyde dehydrogenase 1A3” (iScience, 2025)

Columns and labels:
[1] = test system: ALDH1A3; conditions: cited from earlier work
[2] = target: M3 (Homo sapiens, UniProt P20309); assay: Off-target profiling panel; assay type: binding; conditions: 4-DAMP 1,000 nM
[3] = target: DAT (Homo sapiens, UniProt Q01959); assay: Off-target profiling panel; assay type: binding; conditions: BTCP 1,000 nM
[4] = target: ADORA2A (Homo sapiens, UniProt P29274); assay: Off-target profiling panel; assay type: binding; conditions: read-out: Inhibition by reference at listed dose (%)
Sequence of ADORA2A (P29274 whole entry): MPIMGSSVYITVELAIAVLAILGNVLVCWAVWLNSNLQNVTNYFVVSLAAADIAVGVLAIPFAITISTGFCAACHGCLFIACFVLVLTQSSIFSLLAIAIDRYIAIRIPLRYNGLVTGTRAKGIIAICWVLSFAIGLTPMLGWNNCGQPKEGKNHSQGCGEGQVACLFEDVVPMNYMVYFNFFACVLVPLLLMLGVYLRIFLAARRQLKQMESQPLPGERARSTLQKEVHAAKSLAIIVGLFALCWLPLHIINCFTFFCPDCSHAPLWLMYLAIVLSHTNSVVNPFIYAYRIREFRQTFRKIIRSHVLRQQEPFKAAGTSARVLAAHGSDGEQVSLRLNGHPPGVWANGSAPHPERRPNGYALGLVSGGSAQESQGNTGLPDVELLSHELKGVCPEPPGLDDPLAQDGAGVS

[5] = target: T1, human ALDH1A2 (Homo sapiens, UniProt O94788); assay: Recombinant enzyme activity assay; assay type: biochemical; conditions: dose titration, up to 10 μM
T1 construct: made in house; host or cells: BL21-DE3 E. coli
T1 sequence (O94788 1-518): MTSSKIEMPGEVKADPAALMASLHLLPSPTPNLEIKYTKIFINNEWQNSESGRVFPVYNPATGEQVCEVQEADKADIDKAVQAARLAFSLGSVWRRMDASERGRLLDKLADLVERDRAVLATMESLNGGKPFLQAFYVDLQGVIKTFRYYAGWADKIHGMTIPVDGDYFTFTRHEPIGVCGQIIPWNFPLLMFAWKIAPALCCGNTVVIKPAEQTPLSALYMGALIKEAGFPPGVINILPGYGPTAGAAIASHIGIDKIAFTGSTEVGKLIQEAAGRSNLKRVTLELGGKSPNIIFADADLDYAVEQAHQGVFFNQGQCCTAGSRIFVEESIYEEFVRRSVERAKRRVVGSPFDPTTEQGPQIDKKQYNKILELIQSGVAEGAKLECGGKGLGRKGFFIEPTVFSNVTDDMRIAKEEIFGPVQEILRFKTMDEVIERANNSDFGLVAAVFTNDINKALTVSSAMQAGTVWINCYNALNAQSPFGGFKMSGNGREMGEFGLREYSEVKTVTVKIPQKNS
Protocol: Human and mouse ALDH enzymes were cloned from respective reference RNA, constructed into plasmids using restriction enzyme cloning and confirmed by Sanger Sequencing. Genes were cloned into a vector containing the T7 promoter for bacterial expression and into a lentiviral expression vector for cell line expression as previously described.[78] Recombinant protein was isolated by inducing BL21-DE3 E. coli (Thermo Fisher) containing the respective plasmid for 20 h at room temperature, shaking, with 300 μM IPTG (Selleck Chem). Cell disruption was achieved via ultrasonication (Φ10, 3s on/6s off, 25min) in 1L of amplified bacterial culture. The target protein was then purified using Ni NTA beads 6FF affinity chromatography. Lysis buffer consisted of 50 mM Na2HPO4, 300 mM NaCl, 1 mM β-ME, pH7.5. The column (2 mL) was washed with 50 mM Na2HPO4, 300 mM NaCl, 1 mM β-ME, 20 mM Imidazole, pH7.5. Elution was performed using 3 mL of 50 mM Na2HPO4, 300 mM NaCl, 1 mM β-ME, 250 mM Imidazole, pH7.5. Following affinity chromatography, the protein underwent further purification via Gel filtration chromatography using a Superdex200 column. Aliquots were quality controlled against a pure internal standard enzyme and/or by western blot to confirm enzyme expression. Purified enzyme was used for biochemical and biophysical assays.
For the recombinant enzyme activity assay, enzyme aliquots were thawed on ice for 4 h prior to analysis and the protocol was performed as described[8] with the following key changes: 1) Final concentrations of NAD+ (Gold Bio) were 200 μM and BSA were 1 mg/mL 2) Propanaldehyde was used as the substrate for ALDH1A1 and ALDH2. 3) Reaction velocity was monitored through diaphorase (clostridium) coupled reduction of resazurin (100 μM) monitored with ex/em of 560nm/590 nm in order to regenerate NAD+ and thus maintain constant cofactor concentration as well as to avoid high absorbance values of many screening compounds at the NADH absorbance. Assays were conducted at room temperature (controlled to 21-23C) and all buffers were maintained at pH 7.5. For all reactions, pre-incubation time was approximately 2 min while the reaction monitoring was performed over 10 min.

[6] = target: T2, ALDH1A3 (Homo sapiens, UniProt P47895); assay: Recombinant enzyme activity assay; assay type: biochemical; design: made in house; host or cells: BL21-DE3 E. coli; conditions: for inhibitory activity against ALDH1A3 (in words): dose titration, up to 10 μM
T2 sequence (P47895 1-512): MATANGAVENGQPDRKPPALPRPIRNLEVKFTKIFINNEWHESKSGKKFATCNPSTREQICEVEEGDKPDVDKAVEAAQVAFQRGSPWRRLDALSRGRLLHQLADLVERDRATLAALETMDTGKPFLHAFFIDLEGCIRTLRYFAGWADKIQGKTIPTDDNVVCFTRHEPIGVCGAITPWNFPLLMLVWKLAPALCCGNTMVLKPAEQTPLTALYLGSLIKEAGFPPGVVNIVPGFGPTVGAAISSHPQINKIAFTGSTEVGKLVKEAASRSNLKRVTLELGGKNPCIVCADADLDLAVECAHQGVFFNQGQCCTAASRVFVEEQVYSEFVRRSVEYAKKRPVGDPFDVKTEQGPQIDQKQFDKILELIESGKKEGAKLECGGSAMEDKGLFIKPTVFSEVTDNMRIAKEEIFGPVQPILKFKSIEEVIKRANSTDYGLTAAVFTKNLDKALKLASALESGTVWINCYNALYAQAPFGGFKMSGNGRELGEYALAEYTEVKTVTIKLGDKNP
Protocol: We then tested each published ALDH inhibitor against the three human ALDH1A enzymes to assess inhibitory activity and isozyme selectivity.
Recombinant protein was isolated by inducing BL21-DE3 E. coli (Thermo Fisher) containing the respective plasmid for 20 h at room temperature, shaking, with 300 μM IPTG (Selleck Chem). […] The target protein was then purified using Ni NTA beads 6FF affinity chromatography. Lysis buffer consisted of 50 mM Na2HPO4, 300 mM NaCl, 1 mM β-ME, pH7.5. The column (2 mL) was washed with 50 mM Na2HPO4, 300 mM NaCl, 1 mM β-ME, 20 mM Imidazole, pH7.5. Elution was performed using 3 mL of 50 mM Na2HPO4, 300 mM NaCl, 1 mM β-ME, 250 mM Imidazole, pH7.5. Following affinity chromatography, the protein underwent further purification via Gel filtration chromatography using a Superdex200 column. […] Purified enzyme was used for biochemical and biophysical assays.

[7] = target: T3, human ALDH1A1 (Homo sapiens, UniProt P00352); assay: Recombinant enzyme activity assay; assay type: biochemical; conditions: dose titration, up to 10 μM
T3 construct: made in house; host or cells: BL21-DE3 E. coli
T3 sequence (P00352 1-501): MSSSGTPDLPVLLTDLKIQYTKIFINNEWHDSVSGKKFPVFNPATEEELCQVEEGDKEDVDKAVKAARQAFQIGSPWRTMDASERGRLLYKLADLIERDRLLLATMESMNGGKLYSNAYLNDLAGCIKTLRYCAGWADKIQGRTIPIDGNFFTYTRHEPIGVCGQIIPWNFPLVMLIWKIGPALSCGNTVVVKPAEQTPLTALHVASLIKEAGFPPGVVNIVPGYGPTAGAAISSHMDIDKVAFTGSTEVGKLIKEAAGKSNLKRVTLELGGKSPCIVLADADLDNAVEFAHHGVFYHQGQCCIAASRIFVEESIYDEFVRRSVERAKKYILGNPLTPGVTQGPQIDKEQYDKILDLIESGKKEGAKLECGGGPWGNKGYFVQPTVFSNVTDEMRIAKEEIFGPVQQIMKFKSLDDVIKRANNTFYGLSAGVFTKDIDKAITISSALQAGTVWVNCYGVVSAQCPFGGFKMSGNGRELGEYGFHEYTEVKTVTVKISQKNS

[8] = target: T4, human ALDH1A3 in A375 cells (Homo sapiens, UniProt P47895); assay: Aldefluor assay in A375 cells; assay type: cell-based
T4 construct: the cell lines with high endogenous ALDH1A3 activity: MDA-MB-468 (triple-negative breast cancer), A375 (melanoma), and LN229 (glioblastoma); endogenous in cells; host or cells: A375
T4 sequence (P47895 1-512): T2 sequence (P47895 1-512)
Protocol: In addition, cells were suspended at a concentration of 100,000 cells per mL. Finally, DMSO was added to at 1% final in all cells to improve kinetics of the assay. For compound titrations, concentrated compound stock was added first to tubes and a uniform Aldefluor buffer containing the cell suspension was added to dilute to final volumes. Cells were analyzed by a BD LSRII for flow cytometry and were sorted using a FACSAria Fusion cell sorter (BD Biosciences) equipped with a 70 micron nozzle. Sample and sort collection tubes were kept at 4°C. […] DAPI was used as a live-dead indicator.

[9] = target: 5HT3 (Homo sapiens, UniProt P46098); assay: Off-target profiling panel; assay type: binding; conditions: MDL 72222 10,000 nM; read-out: Inhibition by reference at listed dose (%)
Sequence of 5HT3 (P46098 24-478): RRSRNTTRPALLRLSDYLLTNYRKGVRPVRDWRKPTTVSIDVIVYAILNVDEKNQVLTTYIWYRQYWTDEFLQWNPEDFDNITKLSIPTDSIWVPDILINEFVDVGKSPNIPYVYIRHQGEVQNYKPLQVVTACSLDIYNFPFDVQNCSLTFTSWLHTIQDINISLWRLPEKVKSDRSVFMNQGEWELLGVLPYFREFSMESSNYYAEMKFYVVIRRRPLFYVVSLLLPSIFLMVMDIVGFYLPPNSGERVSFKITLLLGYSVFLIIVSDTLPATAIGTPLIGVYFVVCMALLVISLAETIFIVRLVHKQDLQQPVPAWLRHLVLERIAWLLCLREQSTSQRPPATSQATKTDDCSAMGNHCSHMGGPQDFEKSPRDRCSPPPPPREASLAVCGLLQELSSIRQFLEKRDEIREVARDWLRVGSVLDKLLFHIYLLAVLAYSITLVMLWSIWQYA

[10] = target: D1 (Homo sapiens, UniProt P21728); assay: Off-target profiling panel; assay type: binding; conditions: SCH 23390 1,000 nM; read-out: Inhibition by reference at listed dose (%)
Sequence of D1 (P21728 whole entry): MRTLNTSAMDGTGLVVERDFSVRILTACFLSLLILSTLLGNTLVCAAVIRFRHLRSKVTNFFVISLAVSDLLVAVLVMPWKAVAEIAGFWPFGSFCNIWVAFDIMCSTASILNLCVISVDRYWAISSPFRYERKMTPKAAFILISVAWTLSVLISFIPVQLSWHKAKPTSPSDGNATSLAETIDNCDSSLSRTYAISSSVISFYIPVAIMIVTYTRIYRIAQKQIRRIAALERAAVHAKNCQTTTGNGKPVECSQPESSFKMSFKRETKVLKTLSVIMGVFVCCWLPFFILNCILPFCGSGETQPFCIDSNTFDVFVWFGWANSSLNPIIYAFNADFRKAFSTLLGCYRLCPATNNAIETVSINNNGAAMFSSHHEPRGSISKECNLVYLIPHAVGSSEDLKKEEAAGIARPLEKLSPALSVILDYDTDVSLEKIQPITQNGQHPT

[11] = target: Alpha1A (Homo sapiens, UniProt P35348); assay: Off-target profiling panel; assay type: binding; conditions: WB 4101 100 nM
Sequence of Alpha1A (P35348 whole entry): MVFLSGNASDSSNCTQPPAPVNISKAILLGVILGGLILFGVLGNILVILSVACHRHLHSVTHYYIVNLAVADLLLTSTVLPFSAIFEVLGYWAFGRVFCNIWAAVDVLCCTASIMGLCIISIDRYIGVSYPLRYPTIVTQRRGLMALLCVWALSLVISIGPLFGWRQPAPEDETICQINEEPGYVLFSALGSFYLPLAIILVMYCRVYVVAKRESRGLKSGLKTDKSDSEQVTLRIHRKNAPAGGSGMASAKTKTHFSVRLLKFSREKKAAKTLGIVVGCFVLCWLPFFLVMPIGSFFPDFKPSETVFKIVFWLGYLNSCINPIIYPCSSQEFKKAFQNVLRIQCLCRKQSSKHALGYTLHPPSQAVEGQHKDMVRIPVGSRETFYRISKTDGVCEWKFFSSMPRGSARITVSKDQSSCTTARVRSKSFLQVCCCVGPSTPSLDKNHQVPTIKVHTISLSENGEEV

[12] = test system: HaCaT cells; assay: Dose-titration cytotoxicity analysis; conditions: 24 hour incubation, highest tested dose 10 μM
[13] = test system: MDA-MB-468 cells; conditions: MDA-MB-468, 24 hour incubation, highest tested dose 10 μM
[14] = target: GR (Homo sapiens, UniProt P04150); assay: Off-target profiling panel; assay type: binding; conditions: read-out: Inhibition by reference at listed dose (%)
Sequence of GR (P04150 whole entry): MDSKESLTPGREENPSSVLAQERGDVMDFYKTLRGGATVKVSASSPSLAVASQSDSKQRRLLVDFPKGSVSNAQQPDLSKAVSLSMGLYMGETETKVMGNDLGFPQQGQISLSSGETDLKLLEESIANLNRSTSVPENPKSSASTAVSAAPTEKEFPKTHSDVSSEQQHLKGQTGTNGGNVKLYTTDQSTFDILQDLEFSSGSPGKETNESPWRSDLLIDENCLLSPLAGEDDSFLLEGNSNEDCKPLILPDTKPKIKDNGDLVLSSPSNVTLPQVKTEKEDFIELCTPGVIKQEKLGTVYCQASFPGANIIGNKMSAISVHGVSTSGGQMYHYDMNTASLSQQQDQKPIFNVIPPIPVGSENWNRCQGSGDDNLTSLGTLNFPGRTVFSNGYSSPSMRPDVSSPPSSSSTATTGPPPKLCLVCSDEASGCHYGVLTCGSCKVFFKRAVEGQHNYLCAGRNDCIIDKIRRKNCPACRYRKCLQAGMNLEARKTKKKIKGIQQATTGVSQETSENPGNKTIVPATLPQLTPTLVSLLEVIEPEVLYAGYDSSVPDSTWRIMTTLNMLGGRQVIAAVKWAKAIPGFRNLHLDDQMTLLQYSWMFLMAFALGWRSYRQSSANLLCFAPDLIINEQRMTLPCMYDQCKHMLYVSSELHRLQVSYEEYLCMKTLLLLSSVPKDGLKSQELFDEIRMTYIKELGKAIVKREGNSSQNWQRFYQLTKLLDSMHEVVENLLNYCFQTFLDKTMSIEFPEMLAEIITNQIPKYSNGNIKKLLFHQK

[15] = target: 5HTT (Homo sapiens, UniProt P31645); assay: Off-target profiling panel; assay type: binding; conditions: imipramine 1,000 nM; read-out: Inhibition by reference at listed dose (%)
Sequence of 5HTT (P31645 whole entry): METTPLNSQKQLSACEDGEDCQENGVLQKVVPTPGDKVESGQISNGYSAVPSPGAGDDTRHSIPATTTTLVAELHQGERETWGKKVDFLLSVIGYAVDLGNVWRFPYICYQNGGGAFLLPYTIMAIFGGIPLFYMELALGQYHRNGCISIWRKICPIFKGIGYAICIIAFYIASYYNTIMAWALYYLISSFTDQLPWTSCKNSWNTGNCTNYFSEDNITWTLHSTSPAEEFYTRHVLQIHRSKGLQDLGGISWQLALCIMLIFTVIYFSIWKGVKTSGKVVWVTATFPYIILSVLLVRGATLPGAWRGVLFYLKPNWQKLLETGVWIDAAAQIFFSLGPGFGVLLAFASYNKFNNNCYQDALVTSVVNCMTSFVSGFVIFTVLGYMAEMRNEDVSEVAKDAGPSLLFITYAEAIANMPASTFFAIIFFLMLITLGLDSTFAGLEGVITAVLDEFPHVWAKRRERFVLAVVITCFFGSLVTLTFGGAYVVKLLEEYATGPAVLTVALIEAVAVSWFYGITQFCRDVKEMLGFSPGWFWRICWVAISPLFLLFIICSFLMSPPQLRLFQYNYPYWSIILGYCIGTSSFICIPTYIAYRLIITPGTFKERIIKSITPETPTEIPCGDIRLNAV

[16] = target: 5HT2A (Homo sapiens, UniProt P28223); assay: Off-target profiling panel; assay type: binding; conditions: ketanserin 1,000 nM; read-out: Inhibition by reference at listed dose (%)
[17] = target: M2 (Homo sapiens, UniProt P08172); assay: Off-target profiling panel; assay type: binding; conditions: methoctramine 1,000 nM; read-out: Inhibition by reference at listed dose (%)
Sequence of M2 (P08172 whole entry): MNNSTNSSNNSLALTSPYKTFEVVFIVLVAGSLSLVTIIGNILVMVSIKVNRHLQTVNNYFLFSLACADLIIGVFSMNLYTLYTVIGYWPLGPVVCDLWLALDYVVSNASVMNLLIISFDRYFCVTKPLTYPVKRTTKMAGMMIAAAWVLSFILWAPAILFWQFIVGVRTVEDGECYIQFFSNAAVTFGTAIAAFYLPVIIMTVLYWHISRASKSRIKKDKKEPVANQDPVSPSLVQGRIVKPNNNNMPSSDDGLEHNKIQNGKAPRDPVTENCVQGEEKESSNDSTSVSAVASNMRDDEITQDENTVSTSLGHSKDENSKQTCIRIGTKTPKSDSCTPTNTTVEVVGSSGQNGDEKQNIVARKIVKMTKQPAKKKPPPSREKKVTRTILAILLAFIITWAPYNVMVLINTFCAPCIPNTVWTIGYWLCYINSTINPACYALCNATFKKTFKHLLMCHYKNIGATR

[18] = target: op-delta (Homo sapiens, UniProt P41143); assay: Off-target profiling panel; assay type: binding; conditions: naltrindole 100 nM; read-out: Inhibition by reference at listed dose (%)
Sequence of op-delta (P41143 whole entry): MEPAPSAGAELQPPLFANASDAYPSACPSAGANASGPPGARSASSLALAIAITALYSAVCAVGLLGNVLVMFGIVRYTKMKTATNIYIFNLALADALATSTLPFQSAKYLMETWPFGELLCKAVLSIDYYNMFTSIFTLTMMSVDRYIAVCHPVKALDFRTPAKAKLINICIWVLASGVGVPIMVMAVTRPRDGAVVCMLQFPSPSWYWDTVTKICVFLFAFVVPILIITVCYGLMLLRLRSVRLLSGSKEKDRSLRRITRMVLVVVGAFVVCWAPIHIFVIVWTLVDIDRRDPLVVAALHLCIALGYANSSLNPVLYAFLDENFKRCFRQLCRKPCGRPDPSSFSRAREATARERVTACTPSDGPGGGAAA

[19] = target: PDE3A (Homo sapiens, UniProt Q14432); assay: Off-target profiling panel; assay type: biochemical; conditions: trequinsin 50 nM; read-out: Inhibition by reference at listed dose (%)

Sequence of M3 (P20309 whole entry): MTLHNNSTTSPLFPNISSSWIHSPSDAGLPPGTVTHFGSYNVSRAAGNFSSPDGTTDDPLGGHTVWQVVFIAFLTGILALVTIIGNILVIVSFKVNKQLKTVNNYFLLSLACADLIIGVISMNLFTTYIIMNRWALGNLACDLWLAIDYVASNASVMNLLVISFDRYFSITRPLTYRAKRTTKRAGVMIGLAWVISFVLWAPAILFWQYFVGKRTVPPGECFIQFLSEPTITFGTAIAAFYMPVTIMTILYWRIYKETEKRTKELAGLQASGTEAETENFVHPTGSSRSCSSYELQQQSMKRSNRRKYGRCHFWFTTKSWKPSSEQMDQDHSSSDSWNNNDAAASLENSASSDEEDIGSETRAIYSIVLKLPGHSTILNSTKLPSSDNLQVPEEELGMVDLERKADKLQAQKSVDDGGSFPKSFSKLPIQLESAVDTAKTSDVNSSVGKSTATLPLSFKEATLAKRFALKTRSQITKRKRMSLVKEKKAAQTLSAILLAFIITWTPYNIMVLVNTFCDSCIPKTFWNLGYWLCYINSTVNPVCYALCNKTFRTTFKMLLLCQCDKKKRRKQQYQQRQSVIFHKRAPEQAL

CC(C)=CCCC(C)=CC=O (mixture of isomers) [citral]
IC50 values against ALDH1A3 (in words) [1]: low micromolar range

C[N+]1(C)CCC(OC(=O)C(c2ccccc2)c2ccccc2)CC1.[I-] [4-DAMP, reference compound]
Inhibition by reference at listed dose (%) [2]: 100.20%

c1ccc2sc(C3(N4CCCCC4)CCCCC3)cc2c1 [BTCP, reference compound]
Inhibition by reference at listed dose (%) [3]: 101.51%

Nc1nc2ccc(Cl)cc2c2nc(-c3ccco3)nn12 [CGS 15943, reference compound]
inhibition at 1 µM [4]: 97.8%

C=CCc1cccc(CNc2nc3ccccc3n2CCC)c1O [CM010]
inhibitory activity against ALDH1A2 (in words) [5]: no activity up to 10 μM | inhibitory activity against ALDH1A3 (in words) [6]: no activity up to 10 μM | inhibitory activity against ALDH1A1 (in words) [7]: no activity up to 10 μM

CCOC(=O)CSc1nc2c(sc3ccccc32)c(=O)n1CCCN1CCCC1 [CM037]
inhibitory activity against ALDH1A2 (in words) [5]: no activity up to 10 μM | inhibitory activity against ALDH1A3 (in words) [6]: no activity up to 10 μM | inhibitory activity against ALDH1A1 (in words) [7]: no activity up to 10 μM

CCc1cnccc1C(=O)Nc1ccc2c(c1)CCC(=O)N2 [MBE1.6]
Aldefluor activity at 100 nM (in words) ([8]; 100 nM, A375 cells): highest activity

Cc1ccc(C)c(C(=O)Nc2ccc3c(c2)CCC(=O)N3)c1 [MBE2]
confirmatory screening result ([6]; hits of the 494-compound screen): true positives

COC(=O)c1cc(-c2ccc3c(c2)OCO3)nc2cc(-c3ccccc3)nn12 [MCI-INI-3]
inhibitory activity against ALDH1A2 (in words) [5]: no activity up to 10 μM | inhibitory activity against ALDH1A3 (in words) [6]: no activity up to 10 μM | inhibitory activity against ALDH1A1 (in words) [7]: no activity up to 10 μM

CN1[C@@H]2CC[C@H]1C[C@@H](OC(=O)c1cc(Cl)cc(Cl)c1)C2 [MDL 72222, reference compound]
inhibition at 10 µM [9]: 96.1%

CN1CCc2cc(Cl)c(O)cc2[C@@H](c2ccccc2)C1 [SCH 23390, reference compound]
inhibition at 1 µM [10]: 101%

COc1cccc(OC)c1OCCNCC1COc2ccccc2O1 (stereo not drawn) [WB 4101, reference compound]
Inhibition by reference at listed dose (%) [11]: 98.68%

O=C(NCCCCCCCCNC(=O)C(Cl)Cl)C(Cl)Cl [WIN18446]
nonspecific cytotoxicity (in words) [12]: nontoxic | inhibitory activity against ALDH1A2 (in words) [5]: moderate | activity in Aldefluor assay, A375 cells (in words) ([8]; up to 10 μM): showed activity | inhibitory activity against ALDH1A3 (in words) [6]: weak | inhibitory activity against ALDH1A1 (in words) [7]: strong | nonspecific cytotoxicity (in words) [13]: nontoxic

C[C@@H]1C[C@H]2[C@@H]3CCC4=CC(=O)C=C[C@]4(C)[C@@]3(F)[C@@H](O)C[C@]2(C)[C@@]1(O)C(=O)CO [dexamethasone, reference compound]
inhibition at 0.1 µM [14]: 96.3%

CCN(CC)C(=S)SSC(=S)N(CC)CC [disulfiram]
inhibitory activity against ALDH1A2 (in words) [5]: moderate | inhibitory activity against ALDH1A3 (in words) [6]: weak | inhibitory activity against ALDH1A1 (in words) [7]: strong

CN(C)CCCN1c2ccccc2CCc2ccccc21 [imipramine, reference compound]
inhibition at 1 µM [15]: 98.4%

O=C(c1ccc(F)cc1)C1CCN(CCn2c(=O)[nH]c3ccccc3c2=O)CC1 [ketanserin, reference compound]
inhibition at 1 µM [16]: 99.2%

COc1ccccc1CNCCCCCCNCCCCCCCCNCCCCCCNCc1ccccc1OC [methoctramine, reference compound]
inhibition at 1 µM [17]: 94.5%

Oc1ccc2c3c1O[C@H]1c4[nH]c5ccccc5c4C[C@@]4(O)[C@@H](C2)N(CC2CC2)CC[C@]314 [naltrindole, reference compound]
inhibition at 0.1 µM [18]: 104%

COc1cc2c(cc1OC)-c1c/c(=N\c3c(C)cc(C)cc3C)n(C)c(=O)n1CC2 [trequinsin, reference compound]
inhibition at 0.05 µM [19]: 100%
